# Source: PubChem BioAssay AID270 (DTP/NCI, 2004)
# Several values for one entry are separate records, joined by “and”; a condition that tells them apart may be missing. Equal values may be shown once. Records with an inconclusive call do not appear.
# Test system: BDF1 mice, s.c. Lewis lung carcinoma, T/C %
# Test: NCI In Vivo Anticancer Drug Screen. Data for tumor model Lewis Lung Carcinoma (subcutaneous) in B6D2F1 (BDF1) mice
# Method in brief: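 Antitumor effect in vivo is scored from survival or tumor burden, reported as treated relative to vehicle controls.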
# [1] = endpoint: median survival time, dose: 25.0 mg/kg/injection, schedule: Q01DX009 (ip), vehicle: saline with Tween-80, higher = longer survival
# [2] = endpoint: median survival time, dose: 6.25 mg/kg/injection, schedule: Q01DX009 (ip), vehicle: saline, higher = longer survival
# [3] = endpoint: median survival time, dose: 12.5 mg/kg/injection, schedule: Q01DX009 (ip), vehicle: saline, higher = longer survival
# [4] = endpoint: median survival time, dose: 25.0 mg/kg/injection, schedule: Q01DX009 (ip), vehicle: saline, higher = longer survival
structure (smiles),measurement,setting,value
c1ccc(OP(Oc2ccccc2)Oc2ccccc2)cc1,T/C,"endpoint: mean tumor weight, dose: 37.0 mg/kg/injection, schedule: Q01DX011 (ip), vehicle: other, higher = larger tumour",110 % of control
same,T/C,"endpoint: mean tumor weight, dose: 55.0 mg/kg/injection, schedule: Q01DX011 (ip), vehicle: other, higher = larger tumour",103 % of control
same,T/C,"endpoint: mean tumor weight, dose: 83.0 mg/kg/injection, schedule: Q01DX011 (ip), vehicle: other, higher = larger tumour",91 % of control
same,T/C,"endpoint: mean tumor weight, dose: 125.0 mg/kg/injection, schedule: Q01DX011 (ip), vehicle: other, higher = larger tumour",79 % of control
CCCCS(=O)CC(CO)NC(=O)/C=C/c1c(C)[nH]c(=O)[nH]c1=O (stereo not drawn),T/C,"endpoint: median survival time, dose: 0.63 mg/kg/injection, schedule: Q01DX009 (ip), vehicle: water, higher = longer survival",101 % of control
same,T/C,"endpoint: median survival time, dose: 2.5 mg/kg/injection, schedule: Q01DX009 (ip), vehicle: water, higher = longer survival",113 % of control
same,T/C,"endpoint: median survival time, dose: 5.0 mg/kg/injection, schedule: Q01DX009 (ip), vehicle: water, higher = longer survival",89 % of control
CNC(=S)N/N=C/c1ccc([N+](=O)[O-])s1,T/C,[1],121 % of control
O=[N+]([O-])c1ccc2c(N=Nc3c(O)ccc4ccccc34)c(O)cc(S(=O)(=O)O)c2c1,T/C,"endpoint: mean tumor weight, dose: 180.0 mg/kg/injection, schedule: Q01DX011 (ip), vehicle: saline, higher = larger tumour",59 % of control
same,T/C,"endpoint: mean tumor weight, dose: 265.0 mg/kg/injection, schedule: Q01DX011 (ip), vehicle: saline, higher = larger tumour",50 % of control
same,T/C,"endpoint: median survival time, dose: 50.0 mg/kg/injection, schedule: Q01DX009 (ip), vehicle: saline, higher = longer survival",111 % of control
same,T/C,"endpoint: median survival time, dose: 100.0 mg/kg/injection, schedule: Q01DX009 (ip), vehicle: saline, higher = longer survival",98 % of control
same,T/C,"endpoint: median survival time, dose: 200.0 mg/kg/injection, schedule: Q01DX009 (ip), vehicle: saline, higher = longer survival",95 % of control
Nc1nc2c(ncn2C2OC(CO)C(O)C2N)c(=O)[nH]1 (stereo not drawn),T/C,"endpoint: median survival time, dose: 1.56 mg/kg/injection, schedule: Q01DX009 (ip), vehicle: saline, higher = longer survival",95 % of control
same,T/C,"endpoint: median survival time, dose: 3.12 mg/kg/injection, schedule: Q01DX009 (ip), vehicle: Klucel (hydroxypropylcellulose) (HPC), higher = longer survival",99 % of control
same,T/C,"endpoint: median survival time, dose: 3.13 mg/kg/injection, schedule: Q01DX009 (ip), vehicle: saline, higher = longer survival",91 % of control and 104 % of control
same,T/C,"endpoint: median survival time, dose: 6.25 mg/kg/injection, schedule: Q01DX009 (ip), vehicle: Klucel (hydroxypropylcellulose) (HPC), higher = longer survival",102 % of control
same,T/C,[2],97 % of control
same,T/C,"endpoint: median survival time, dose: 12.5 mg/kg/injection, schedule: Q01DX009 (ip), vehicle: Klucel (hydroxypropylcellulose) (HPC), higher = longer survival",102 % of control
same,T/C,"endpoint: median survival time, dose: 12.5 mg/kg/injection, schedule: Q01DX009 (ip), vehicle: saline with Tween-80, higher = longer survival",95 % of control
same,T/C,[3],98 % of control
same,T/C,"endpoint: median survival time, dose: 25.0 mg/kg/injection, schedule: Q01DX009 (ip), vehicle: Klucel (hydroxypropylcellulose) (HPC), higher = longer survival",90 % of control
same,T/C,[1],118 % of control
same,T/C,[4],94 % of control
same,T/C,"endpoint: median survival time, dose: 50.0 mg/kg/injection, schedule: Q01DX009 (ip), vehicle: saline with Tween-80, higher = longer survival",110 % of control
CC1CCC2C(C)C3C(CC4C5CC=C6CC(OC7OC(CO)C(O)C(OC8OC(CO)C(O)C(O)C8O)C7OC7OC(C)C(O)C(O)C7O)CCC6(C)C5CCC43C)N2C1 (stereo not drawn),T/C,"endpoint: mean tumor weight, dose: 54.0 mg/kg/injection, schedule: Q01DX011 (sc), vehicle: steriod suspending solution, higher = larger tumour",112 % of control
same,T/C,"endpoint: mean tumor weight, dose: 80.0 mg/kg/injection, schedule: Q01DX011 (sc), vehicle: steriod suspending solution, higher = larger tumour",69 % of control
same,T/C,"endpoint: mean tumor weight, dose: 120.0 mg/kg/injection, schedule: Q01DX011 (sc), vehicle: steriod suspending solution, higher = larger tumour",76 % of control
COc1cc(OC)c(OC)cc1/C=C/c1cc[n+](C)c2ccccc12,T/C,[2],97 % of control
same,T/C,[3],97 % of control
same,T/C,[4],111 % of control
NC(=O)c1ccc(NC(=O)CCC(=O)Nc2ccc(C(N)=O)cn2)nc1,T/C,"endpoint: mean tumor weight, dose: 1.25 mg/kg/injection, schedule: Q01DX011 (ip), vehicle: carboxymethylcellulose (CMC), higher = larger tumour",54 % of control
same,T/C,"endpoint: mean tumor weight, dose: 2.5 mg/kg/injection, schedule: Q01DX011 (ip), vehicle: carboxymethylcellulose (CMC), higher = larger tumour",24 % of control
N#Cc1ccc(NC(=O)N(CCCl)N=O)cc1,T/C,"endpoint: median tumor weight (est.), dose: 13.0 mg/kg/injection, schedule: Q01DX001 (ip), vehicle: Klucel (hydroxypropylcellulose) (HPC), higher = larger tumour",83 % of control
same,T/C,"endpoint: median tumor weight (est.), dose: 19.0 mg/kg/injection, schedule: Q01DX001 (ip), vehicle: Klucel (hydroxypropylcellulose) (HPC), higher = larger tumour",118 % of control
same,T/C,"endpoint: median tumor weight (est.), dose: 29.0 mg/kg/injection, schedule: Q01DX001 (ip), vehicle: Klucel (hydroxypropylcellulose) (HPC), higher = larger tumour",109 % of control
same,T/C,"endpoint: median tumor weight (est.), dose: 44.0 mg/kg/injection, schedule: Q01DX001 (ip), vehicle: Klucel (hydroxypropylcellulose) (HPC), higher = larger tumour",73 % of control
same,T/C,"endpoint: median tumor weight (est.), dose: 67.0 mg/kg/injection, schedule: Q01DX001 (ip), vehicle: Klucel (hydroxypropylcellulose) (HPC), higher = larger tumour",39 % of control
